# According to article PMC4428838, “Optimization of Invasion-Specific Effects of Betulin Derivatives on Prostate Cancer Cells through Lead Development” (PLoS ONE, 2015):
# How the values were obtained:
# in vitro = type: cell-based; conditions: human
# Experimental: To rule out that cytotoxic and antimitotic effects were misinterpreted as anti-invasive, we tested compounds 4, 5, 6, 19 and 20 for inhibition of proliferation and induction of cell death in a 2D monolayer culture (summarized in Fig 6). […] LNCaP cells were more sensitive, with growth inhibition/cytotoxicity starting at 3 μM. The effects on non-transformed, apoptosis-sensitive Ep156T cells were strongest. Here, cytotoxic effects were typically observed already at 0.3–1 μM. […] We further calculated EC50 values for proliferation, apoptosis and cell death for each compound, using the PerkinElmer Harmony software (method validation shown in S7 Fig). The only assay that produced results consistent with those of the betulin derivatives tested in the 2D cell culture model was the proliferation assay (Table 1).
# Fig 6 Cytotoxicity tests performed in 2D monolayer culture. A) Cell proliferation/cell number, B) programmed cell death (apoptosis), and C) number of dead cells were assessed by conventional assays, combined with high-content microscopy (Operetta). […] Proliferation was measured as the total number of nuclei (= cells), apoptosis as ratio of caspase-3 positive versus all cells, and cell death as ethidium homodimer-2 positive nuclei versus all cells.
# Cells were transferred into CellCarrier 384-well plates (PerkinElmer, Waltham, MA, USA) at a density of 1250 cells/well, using Multidrop dispenser (ThermoFisher Scientific, Waltham, MA, USA). After overnight incubation at 37°C experimental, compounds were added with an ATS Acoustic Transfer System (EDC Biosystems, Fremont, CA, USA). For Ep156T cells the protocol was done in reverse with compounds dispensed before seeding of cells. Fluorescent markers were dispensed in culture medium using ATS system after 72-h compound exposure. Nuclei were stained with cell-permeable Hoechst 33342 (Molecular Probes, Eugene, OR, USA), dead cells with ethidium homodimer-2 (Invitrogen, Carlsbad, CA, USA) and apoptotic cells with NucView caspase-3 detection reagent (Essen Bioscience, Ann Arbor, MI, USA). Cells were imaged with Operetta high-content imager (PerkinElmer, Waltham, MA, USA). Proliferation was measured from the number of nuclei (cells), cell death and apoptosis from positive cells/total cells ratio using Harmony image analysis software (PerkinElmer, Waltham, MA, USA). EC50 values were also assessed with the Harmony software.
# [1] = test system: phosphorylation levels of 43 kinases in PC-3 cells; assay: Phospho-kinase antibody array on lysates of 3D cultures; type: cell-based, human; conditions: for p70 S6 kinase (T389), p53 (S392) and PYK2 (Y402) phosphorylation: 6-d exposure; for phosphorylation levels of STAT3 (Y727), c-Jun (S63), eNOS (S1177) and PLC-γ1 (Y783): both short (4 h, 1 μM) and long-term (6 d, 300 nM) exposures
# Experimental: In order to elucidate possible mechanism of action for our betulin derivatives, we used a phospho-kinase array that quantitatively detects the phosphorylation levels of 43 kinases in cell lysates (Fig 7). Lysates were extracted from 3D cell cultures of PC-3 cells, and exposed to betulin-derived compounds for short (4 hours) or long-term (6 days) periods. For these studies, we selected the two representative derivatives 5 and 20 as the most specific, least cytotoxic inhibitors of cell invasion. […] The kinase arrays were also quantified by image densitometry (Fig 7A). […] The reduction of AKT activity by both compounds was validated by western blotting, using an independent, p-AKT specific antibody (Fig 7B). The short treatments caused only modest changes with a maximum reduction of protein phosphorylation by 2-fold (20: GSK-3α/β S21/S9 and STAT3 Y705). Phosphorylation levels of only three kinases were altered more than 2-fold in the long-term exposures, namely AKT (T308), p53 (S46) and eNOS (S1177), caused by nanomolar concentrations of compound 5. Compound 20 had much less dramatic effects on kinase phosphorylation when compared to compound 5, despite its generally more pronounced anti-invasive effects.
# Fig 7 Mechanisms of action. PC-3 spheroids were exposed to two representative betulin derivatives, 5 and 20, for 4 h (at 1 μM) and 6 days (at 0.3 μM). A) Computational quantification of signal intensities from the kinase arrays, aligned by fold changes observed (left to right). B) Western blot of total and phospho-Akt (S473) shown for both short and long-term exposure to 20 and 5.
# In order to generate sufficient protein material for antibody arrays, we resorted to 6-well Millicell hanging cell culture inserts (Merck Millipore, Billerica, MA, USA). Membranes were pre-coated with 4 mg/mL GFR Matrigel (Corning Inc., New York, NY, USA) and incubated at 37°C for 1 h to prevent attachment to the membrane. GFR Matrigel (2 mg/mL) was prepared and 100,000 cells were added in. The Matrigel-cell suspension was transferred into the coated wells and incubated overnight at 37°C. Fresh medium was added the following day under the insert. After four days in culture fresh media with compounds 20 and 5 at 0.3 μM concentration compounds were added for six days long-term exposure. On day 10, the same compounds were added in fresh medium at 1 μM concentration for the 4h short-term exposure. DMSO was used as a negative control in both exposures. Cells were harvested by first washing the inserts with ice cold PBS, then incubating the isolated ECM slabs in ice cold 5 mM ethylenediaminetetraacetic acid (EDTA) in PBS on ice on a table top rocker for 45 min to dissolve the ECM, and finally by washing the cell pellets once with PBS before lysing them in Lysis Buffer 6 (R&D Systems, Minneapolis, MN, USA). The antibody arrays used were from the Human Phospho-Kinase Array Kit (R&D Systems, Minneapolis, MN, USA). The samples were assayed according to manufacturer’s instructions. Exposed radiograms were scanned with a tabletop scanner and spot intensities quantified using Array-Pro Analyzer (v4.5.1.73) software.
SMILES,EC50 at 72 h (in vitro) [µM],AMPKα1 (T174) phosphorylation [1],phosphorylation of p53 sites S46 and S392 [1],"p70 S6 kinase (T389), p53 (S392) and PYK2 (Y402) phosphorylation ([1]; 300 nM)","phosphorylation levels of STAT3 (Y727), c-Jun (S63), eNOS (S1177) and PLC-γ1 (Y783) [1]","alteration of phosphorylation levels of AKT (T308), p53 (S46) and eNOS (S1177) ([1]; long-term exposures, 6 d, nanomolar concentrations)","Akt (T308) phosphorylation ([1]; long-term treatment, 6 d, 300 nM)","p53 (S15) phosphorylation ([1]; short-term exposure, 4 h, 1 μM)","specific changes in kinase activity ([1]; short-term exposure, 4 h, 1 μM)","phosphorylation of mTOR (S2448), Fyn (Y420) and Src (Y419) [1]",Akt (S473) phosphorylation ([1]; 4 h at 1 μM vs 6 d at 300 nM),"phosphorylation of Hck (Y411), pan-JNK, GSK-3α/β (S21/S9), STAT3 (Y705) and WNK1 (T60) sites ([1]; compound-specific effects)","maximum reduction of protein phosphorylation (GSK-3α/β S21/S9 and STAT3 Y705) ([1]; short treatments, 4 h, 1 μM) [fold]"
C=C(C)[C@@H]1CC[C@]2(C(=O)O)CC[C@]3(C)C(CCC4[C@@]5(C)Cc6cnoc6C(C)(C)C5CC[C@]43C)C12 (stereo partly drawn) [Compound 5],10,increased,consistently decreased,reduced,clearly decreased,more than 2 fold,abolished almost entirely,reduced,did not cause any specific changes in kinase activity,–,–,–,–
C=C(C)[C@@H]1CC[C@]2(C(=O)O)CC[C@]3(C)C(CCC4[C@@]5(C)Cc6ncccc6C(C)(C)C5CC[C@]43C)C12 (stereo partly drawn) [Compound 20],67,increased,–,reduced,clearly decreased,–,–,reduced,–,increased,only inhibited by the 6-d exposure,differential phosphorylation,2
